Laboratory results taken from article PMC5641094, “A peptide antagonist of Prep1-p160 interaction improves ceramide-induced insulin resistance in skeletal muscle cells” (Oncotarget, 2017).
One block for each molecule: values may come before it. Ends that are not written are not given here. * marks the point of attachment. Biotin = O=C1N[C@H]2[C@H](CS[C@H]2CCCCC(=O)*)N1

Legend:
Prep1 mRNA = experiment: Real-time RT-PCR of Prep1 mRNA in L6 cells; format: cell-based, rat; details: preliminary data
Method: (§1) Figure 2 Effect of ceramides on Prep1 and p160 mRNA expression and of Prep1-p160 coprecipitation L6 cells were treated with C2cer (10μM) for 18h and Prep1 (A) or p160 (B) mRNA levels were analyzed by real-time RT-PCR analysis. Data were normalized by the amount of GAPDH mRNA, used as internal control. Bars represent the mean ± SD of three independent experiments, each performed in triplicate. (C) L6 cells were treated with cycloheximide (CHX) at 40μg/mL concentration for 18h and the lysates were analyzed by Western blot with anti-p160 and beta-actin. The autoradiograph shown is representative of three different experiments and subjected to densitometric analysis. (D) Protein lysates from L6 cells treated with C2cer as indicated, were immunoprecipitated with Prep1 antibody and immunoblotted with p160 or Prep1 antibodies. The autoradiograph shown is representative of three different experiments and subjected to densitometric analysis. Asterisks denote statistically significant differences (*p<0.05; **p<0.01).
Total cellular RNA was isolated from L6 cells by using the RNeasy kit (QIAGEN Sciences, Germany), according to manufacturer instructions. 1μg of cell RNA was reverse-transcribed using Superscript III Reverse Transcriptase (Life Technologies Carlsbad, CA, USA). PCR reactions were analyzed using IQTM SYBR Green Supermix (Bio-Rad, Hercules, CA). […]

[1] = test system: Prep1 and p160 protein levels in L6 cells; experiment: Western blot of Prep1 and p160 protein levels in L6 cells; format: cell-based, rat; details: CHX 40μg/ml, 18h
Method: Figure 1 Effect of ceramides dose-response and time-course on Prep1 and p160 protein levels L6 skeletal muscle cells were treated with different concentration of C2cer (10μM and 100μM for 18h) (A) and for different time (10μM for 6h and 18h) (B). Protein lysates were analyzed by Western blot using antibodies for Prep1, p160 and for the beta-actin, as a loading control. Blots were detected by ECL and autoradiography. The autoradiographs are representative of four independent experiments. Asterisks denote statistically significant differences (*p<0.05; **p<0.01).
as §1
Figure 3 Design and in vitro effects of Prep1(54-72) peptide on Prep1/p160 association (A) Binding curves of Prep1(59-72) and Prep1(54-72) peptides to p160_20-160 by ELISA-like assays. Biotinylated peptides at several concentrations were added in triplicate to a 96-well plate coated with p160_20-160 (0.1μM). Experiments were performed at least twice and the average results fitted using GraphPad Prism. […] (B) Competition binding experiments. His6-tagged-p160_20-160 at 0.25μM was incubated with Prep1(59-72) and Prep1(54-72) at concentrations ranging between 0.001÷10μM and added to a 96-well plate coated with Prep1_45-155 (0.10μM). Results are the average of three independent experiments. (C) L6 cells were incubated with increasing concentrations of the fluorescein-conjugated peptide (FITC-Prep1(54-72)) and peptide uptake was detected by FACS analysis of fluorescein-labeled cells. Bars represent the mean ± SD of four independent experiments. (D) L6 muscle cells incubated with Prep1(54-72) were stimulated with C2cer (10μM) for 18h. Protein lysates were immunoprecipitated with Prep1 antibodies and analyzed by Western blot using antibodies for p160 or for Prep1. (E) An aliquot of the lysate was used to measure protein expression of Prep1 and p160 and the beta-actin used as loading control. The blots were detected by ECL and autoradiography. The autoradiograph is representative of three independent experiments. Asterisks denote statistically significant differences (*p<0.05; **p<0.01).
L6 rat skeletal muscle cells (ATCC, Manassas, VA, USA) were cultured in DMEM supplemented with 10% FBS and 1% penicillin/streptomycin solution at 37°C in a humidified 95% air and 5% CO2 atmosphere (all vol./vol.). […]
Total cell lysates were obtained and separated by SDS-PAGE. […] The protein concentrations in the cell lysates were measured using a Bio-Rad DC (detergent compatible) assay. […]

[2] = target: T1, p160_20-160/Prep1_45-155 binding (Homo sapiens, UniProt Q9BQG0); experiment: ELISA-like competition of p160_20-160/Prep1_45-155 binding; details: His6-p160_20-160 0.25μM pre-incubated with peptide 0.001-10μM; plate coated with Prep1_45-155 (0.10μM); anti-His HRP; average of three experiments
T1 construct: pre-incubating the His6-tagged-p160_20-160 at 0.25μM with peptides; made in house
T1 sequence (Q9BQG0 20-160): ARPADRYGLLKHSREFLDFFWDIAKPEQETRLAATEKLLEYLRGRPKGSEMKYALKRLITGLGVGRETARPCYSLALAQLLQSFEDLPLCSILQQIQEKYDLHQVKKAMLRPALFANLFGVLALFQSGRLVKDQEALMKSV
Text: To address the significance of the association between Prep1 and p160 mediated by C2cer, we generated a synthetic inhibitor of the Prep1/p160 interaction. […] The synthetic peptide covering such stretch of residues was therefore chosen to generate a potential inhibitor. […] Thus, we designed and chemically synthesized a peptide spanning residues 59-72, hereafter Prep1(59-72), which comprises the predicted α-helix and a short loop at the N-terminus (Supplementary Figure 2A, upper panel). We also designed and prepared an additional peptide with a slightly longer N-terminal end, named Prep1(54-72) (Supplementary Figure 2A, lower panel), to increase the probability of obtaining a molecule with helical features. […] In order to test the affinity of Prep1 synthetic peptides to p160 protein, ELISA-like experiments were developed where N-terminally biotinylated peptide variants were added to p160_20-160 – coated 96-well plates. As shown in Figure 3A either variants bound p160_20-160 domain in a dose-dependent and saturable manner. […]
(§2) Figure 3 Design and in vitro effects of Prep1(54-72) peptide on Prep1/p160 association (A) Binding curves of Prep1(59-72) and Prep1(54-72) peptides to p160_20-160 by ELISA-like assays. […] (C) L6 cells were incubated with increasing concentrations of the fluorescein-conjugated peptide (FITC-Prep1(54-72)) and peptide uptake was detected by FACS analysis of fluorescein-labeled cells. […] Protein lysates were immunoprecipitated with Prep1 antibodies and analyzed by Western blot using antibodies for p160 or for Prep1. […] The blots were detected by ECL and autoradiography. […]
ELISA experiments were performed using an integrated platform for High-Throughput Screening (Hamilton Robotics, Bonaduz, CH) comprising a fully equipped Starlet 8 channel liquid handler, a robotic arm, a washer and a multi-wavelength plate reader. […] In particular, several concentrations of biotinylated peptides at several concentrations were added to a plate coated with p160_20-160 (0.1μM) and binding was detected with streptavidin-HRP. […] The binding was detected by anti-His HRP-conjugated antibody. […]

p160_20-160 = target: T2, p160_20-160 (Homo sapiens, UniProt Q9BQG0); experiment: ELISA-like direct binding of biotinylated Prep1 peptides to coated p160_20-160; details: N-terminally biotinylated peptide variants; plate coated with p160_20-160 (0.1μM); streptavidin-HRP; one-site binding fit; triplicate, performed at least twice
T2 construct: were added to a plate coated with p160_20-160 (0.1μM); His6; made in house
T2 sequence (Q9BQG0 20-160): T1 sequence (Q9BQG0 20-160)
Text: To address the significance of the association between Prep1 and p160 mediated by C2cer, we generated a synthetic inhibitor of the Prep1/p160 interaction. […] The synthetic peptide covering such stretch of residues was therefore chosen to generate a potential inhibitor. […] Thus, we designed and chemically synthesized a peptide spanning residues 59-72, hereafter Prep1(59-72), which comprises the predicted α-helix and a short loop at the N-terminus (Supplementary Figure 2A, upper panel). […]
as §2
ELISA experiments were performed using an integrated platform for High-Throughput Screening (Hamilton Robotics, Bonaduz, CH) comprising a fully equipped Starlet 8 channel liquid handler, a robotic arm, a washer and a multi-wavelength plate reader. […] The binding was detected by anti-His HRP-conjugated antibody. […]

L6 cells [3] = experiment: Glycogen content in L6 cells; format: cell-based, rat; details: insulin 100nM, mean of three experiments
Method: (§3) Figure 6 Effect of Prep1(54-72) peptide on glycogen content and 2-DG uptake L6 control and Prep1 overexpressing cells were stimulated with Insulin (100nM) and/or C2cer (10μM) and incubated with Prep1(54-72). (A) Glycogen content and (B) 2-DG uptake were measured as described in methods. Bars represent the mean ± SD of three independent experiments. Asterisks denote statistically significant differences (*p<0.05; **p<0.01; ***p<0.001).
(§4) Glycogen was isolated from L6 cells homogenized in 0.1% SDS, saturated with Na2SO4 for 30 minutes at 37°C, followed by ethanol (EtOH) precipitation. Glycogen content was determined as previously described. 2-DG uptake by the L6 cells was measured as previously reported.

[4] = test system: IR tyrosine phosphorylation; experiment: IR tyrosine phosphorylation, immunoprecipitation and Western blot; format: cell-based, rat; details: L6 cells, insulin 100nM
Method: (§5) Figure 4 Prep1(54-72) peptide restores the insulin signaling inhibited by C2cer and Prep1 L6 cells were stimulated with insulin (100nM) and incubated with Prep1(54-72) in presence of C2cer at 10μM for 18h (A-B) or stable transfection of Prep1 (C-D). Protein lysates were immunoprecipitated with specific IR or IRS1 antibodies and analyzed by Western blot using antibodies for phosphotyrosines (pY) and beta-actin as loading control. Blots were detected by ECL and autoradiography. The autoradiographs are representative of three independent experiments. Asterisks denote statistically significant differences (*p<0.05; **p<0.01).
(§6) Total cell lysates were obtained and separated by SDS-PAGE. Briefly, cells were solubilized with lysis buffer containing 50mM HEPES, 150mM NaCl, 10mM EDTA, 10mM Na4P2O7, 2mM sodium orthovanadate, 50mM NaF, 1mM phenylmethylsulfonyl fluoride, 10μg/ml aprotinin, 10μg/ml leupeptin, pH 7.4, and 1% (v/v) Triton X-100. Lysates were clarified by centrifugation at 12,000g for 20 minutes at 4°C. The protein concentrations in the cell lysates were measured using a Bio-Rad DC (detergent compatible) assay. Immunoprecipitation and Western blot analysis have been performed as previously described.

[5] = test system: IRS1 tyrosine phosphorylation; experiment: IRS1 tyrosine phosphorylation, immunoprecipitation and Western blot; format: cell-based, rat; details: L6 cells, insulin 100nM
Method: as §5, §6

L6 cells [6] = experiment: 2-DG uptake in L6 cells; format: cell-based, rat; details: insulin 100nM, mean of three experiments
Method: as §3, §4

His6-tagged p160(20-160) = target: T3, His6-tagged p160(20-160) (UniProt Q7TPV4 20-160); experiment: ELISA; ELISA-like direct binding: 96-well plate coated with p160(20-160) (0.1 uM); biotinylated peptides at several concentrations added in triplicate; detection with streptavidin-HRP; one-site binding fit (GraphPad Prism); details: both partners purified
T3 construct: also called His6-p160(20-160); p160(20-160) domain
T3 sequence (looked up): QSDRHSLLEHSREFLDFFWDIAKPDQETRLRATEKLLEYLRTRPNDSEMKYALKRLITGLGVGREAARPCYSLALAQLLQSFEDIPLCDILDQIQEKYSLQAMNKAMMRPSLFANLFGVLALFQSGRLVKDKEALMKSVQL

Molecule: Cc1ccc(NCCCc2ccccc2)c(N)c1 [JSH-23]
effect on C2cer-induced Prep1 mRNA expression (Prep1 mRNA): reverts the effect of C2cer

Molecule: C[C@@H]1C[C@@H]([C@H](O)CC2CC(=O)NC(=O)C2)C(=O)[C@@H](C)C1 [cycloheximide (CHX), cycloheximide]
reduction of p160 cellular levels [1]: 50%

Molecule: insulin: insulin used at 100nM to stimulate L6 cells
stimulation of glycogen synthesis (L6 cells [3]): 1.3 fold | stimulation of IR tyrosine phosphorylation [4]: 1.5 fold | stimulation of IRS1 tyrosine phosphorylation [5]: 1.1 fold | stimulation of glucose uptake (2-DG) (L6 cells [6]): 2.1 fold

Results, then the molecule that gave them:

IC50, inhibition of p160_20-160/Prep1_45-155 binding [2]: did not converge to a meaningful value | Kd (p160_20-160): 1.25 µM
Molecule: Ac-RHPLFPLLALLFEK-NH2 [Prep1(59-72)]

Kd (His6-tagged p160(20-160)): 0.18 ± 0.04 µM
B1: N-terminally biotinylated Prep1(54-72) peptide (peptide)
peptide: Biotin-KQAIYRHPLFPLLALLFEK
notes: Prep1 (Pbx regulating protein 1), stretch of the HR1 domain, named residues 54-72; source: synthetic peptide (Fmoc solid phase, RP-HPLC purified), biotin labelled

Kd (His6-tagged p160(20-160)): 1.25 ± 0.08 µM
B2: N-terminally biotinylated Prep1(59-72) peptide (peptide)
peptide: Biotin-RHPLFPLLALLFEK
notes: Prep1 (Pbx regulating protein 1), stretch of the HR1 domain, named residues 59-72; source: synthetic peptide (Fmoc solid phase, RP-HPLC purified), biotin labelled
